Laboratory results as given in paper PMC9878345 (Frontiers in Chemistry, 2023).
Several values for one entry are separate records, joined by “and”; a condition that tells them apart may be missing. Identical values can stand only once. Like-named read-outs stand apart in the source and are kept apart here.

How the values were obtained:
SARS-CoV-2 PLpro [1] = target: T1, SARS-CoV-2 PLpro (Severe acute respiratory syndrome coronavirus 2, UniProt P0DTD1); test: biochemical; assay type: biochemical; conditions: for inhibitory activity towards PLpro proteolytic activity (in words): at the tested concentrations (50, 100, 200 μM); for IC50, PLpro proteolytic activity (Figure 5) / IC50 towards PLpro proteolytic activity / IC50: dose-dependent study; for IC50 towards PLpro proteolytic activity / IC50: 0–100 µM, non-linear regression; for inhibition at 200 µM / inhibition at 50 µM / inhibition at 100 µM: read-out: inhibition of PLpro proteolytic activity; for inhibition activity in SARS-CoV-2 PLpro enzymatic activity: concentration not stated
SARS-CoV-2 PLpro [2] = target: T1, SARS-CoV-2 PLpro; test: biochemical
Vero-E6 cells = test: Cell viability assay (PrestoBlue); assay type: cell-based, African green monkey; conditions: for cytotoxicity: at the tested doses and time points; for cytotoxicity (in words): 24, 48, 72 h at 50, 100, 200 µM
Protocol: The cytotoxic effect of selected phytochemicals were carried out with Vero-E6 cells using PrestoBlue™ Cell Viability kit as described earlier ([Lewis et al., 2022]). Briefly, Vero-E6 cells (20,000 cells) were seeded overnight in 96 well plates. Then, 100 µL of complete media (EMEM+10% FBS+1%Pen/Strep) was added to refresh the cells along with 50, 100, and 200 µM selected phytochemicals, and incubation was continued for 24, 48, and 72 hs at 37°C respectively. Cytotoxicity detection regent (PrestoBlue solution) was added and incubated for additional 1h at 37°C. The absorbance was taken at 530/25 excitation and 590/35 nm emission using Bio-Tek Synergy HT fluorescent plate reader.

[3] = read-out: inhibition of PLpro DUB activity
[4] = read-out: IC50 towards PLpro proteolytic activity

evodiamine
inhibitory activity towards PLpro proteolytic activity (in words) (SARS-CoV-2 PLpro [1]): only colchicine out of all the tested alkaloids

C/C=C1/[C@H](O[C@@H]2O[C@H](CO)[C@@H](O)[C@H](O)[C@H]2O)OC=C(C(=O)OC)[C@H]1CC(=O)OCCc1ccc(O)c(O)c1 [oleuropein]
IC50, PLpro proteolytic activity (Figure 5) (SARS-CoV-2 PLpro [1]): Ambiguous
IC50 towards PLpro proteolytic activity (SARS-CoV-2 PLpro [1]): ambiguous
inhibition at 200 µM (SARS-CoV-2 PLpro [1]): 60%
IC50 (SARS-CoV-2 PLpro [2]): 132 µM
inhibition at 200 µM (SARS-CoV-2 PLpro [2]; [3]): 50%
cytotoxicity (Vero-E6 cells): 20-30%

COc1ccc2cc1Oc1ccc(cc1)C[C@H]1c3cc(c(OC)cc3CCN1C)Oc1c(OC)c(OC)cc3c1[C@H](C2)N(C)CC3 [tetrandrine]
inhibitory activity towards PLpro proteolytic activity (in words) (SARS-CoV-2 PLpro [1]): only colchicine out of all the tested alkaloids

O=c1c2cc(O)c(O)cc2oc2cc(O)c([C@@H]3O[C@H](CO)[C@@H](O)[C@H](O)[C@H]3O)c(O)c12 [mangiferin, 2-β-D-glucopyranosyl-1,3,6,7-tetrahydroxy-9H-xanthan-9-one]
IC50 (SARS-CoV-2 PLpro [1]; IC50 towards PLpro proteolytic activity): 95.3 µM and 43.4 µM
inhibition of PLpro proteolytic activity (SARS-CoV-2 PLpro [1]; concentration not given): 70%
inhibition at 200 µM (SARS-CoV-2 PLpro [1]): > 50%
IC50 (SARS-CoV-2 PLpro [2]): 104 µM
inhibition at 200 µM (SARS-CoV-2 PLpro [2]; [3]): 10 to 30%
cytotoxicity (in words) (Vero-E6 cells): not c ytotoxic

C=C(C)[C@@H]1CC[C@]2(C(=O)O)CC[C@]3(C)[C@H](CC[C@@H]4[C@@]5(C)CC[C@H](O)C(C)(C)[C@@H]5CC[C@]43C)[C@@H]12 [betulinic acid]
inhibitory activity towards PLpro proteolytic activity (in words) (SARS-CoV-2 PLpro [1]): did not show inhibitory activity

O[C@H]1[C@H]2c3cc4c(cc3CN3CCC(=C[C@@H]1O)[C@H]23)OCO4 [lycorine]
inhibitory activity towards PLpro proteolytic activity (in words) (SARS-CoV-2 PLpro [1]): only colchicine out of all the tested alkaloids

C=CCSSCC=C [diallyl disulfide]
inhibitory activity towards PLpro proteolytic activity (in words) (SARS-CoV-2 PLpro [1]): did not show inhibitory activity

C=CCSSSCC=C [diallyl trisulfide]
inhibitory activity towards PLpro proteolytic activity (in words) (SARS-CoV-2 PLpro [1]): did not show inhibitory activity

COc1cc(-c2coc3cc4c(c(OC)c3c2=O)OCO4)cc(OC)c1OC [isoflorentin]
inhibitory activity towards PLpro proteolytic activity (in words) (SARS-CoV-2 PLpro [1]): none of the tested isoflavone compounds such as daidzein, daidzin, genistein, genistin, and isoflorentin demonstrated an inhibitory effect

CN1Cc2c(ccc3c2OCO3)[C@@H]2[C@H]1c1cc3c(cc1C[C@@H]2O)OCO3 [chelidonine]
inhibitory activity towards PLpro proteolytic activity (in words) (SARS-CoV-2 PLpro [1]): only colchicine out of all the tested alkaloids

COc1cc2oc3cc(O)c(OC)c(CC=C(C)C)c3c(=O)c2c(O)c1CC=C(C)C [β-mangostin, b-Mangostin]
inhibitory activity towards PLpro proteolytic activity (in words) (SARS-CoV-2 PLpro [1]): Only γ-mangostin and mangiferin exhibited more than 50% inhibitory activity

O=c1c(O)c(-c2cc(O)c(O)c(O)c2)oc2cc(O)cc(O)c12 [myricetin, 3,5,7, 3′, 4′, 5′-hexahydroxyflavone]
cytotoxicity (Vero-E6 cells): 20-30%

O.Oc1cc(O)c2c(c1)O[C@H](c1ccc(O)c(O)c1)[C@@H](O)C2 [catechin]
inhibition of PLpro proteolytic activity (SARS-CoV-2 PLpro [1]; 50 μM, vs DMSO control): 25%
inhibition of PLpro proteolytic activity (SARS-CoV-2 PLpro [1]; 100 μM, vs DMSO control): 44%
inhibition of PLpro proteolytic activity (SARS-CoV-2 PLpro [1]; 200 μM, vs DMSO control): 64%
IC50 (SARS-CoV-2 PLpro [1]; [4]): 14.2 µM
inhibition of PLpro DUB activity (SARS-CoV-2 PLpro [2]; 50 μM, vs DMSO control): 30%
inhibition of PLpro DUB activity (SARS-CoV-2 PLpro [2]; 100 μM, vs DMSO control): 40%
inhibition of PLpro DUB activity (SARS-CoV-2 PLpro [2]; 200 μM, vs DMSO control): 50%

O=c1c(-c2ccc(O)cc2)coc2cc(O)ccc12 [daidzein]
inhibitory activity towards PLpro proteolytic activity (in words) (SARS-CoV-2 PLpro [1]): none of the tested isoflavone compounds such as daidzein, daidzin, genistein, genistin, and isoflorentin demonstrated an inhibitory effect

O=C(O[C@@H]1Cc2c(O)cc(O)cc2O[C@@H]1c1cc(O)c(O)c(O)c1)c1cc(O)c(O)c(O)c1 [EGCG, epigallocatechin gallate]
inhibition at 50 µM (SARS-CoV-2 PLpro [1]; 50 μM, vs DMSO control): 65%
inhibition at 100 µM (SARS-CoV-2 PLpro [1]; 100 μM, vs DMSO control): 81%
inhibition at 200 µM (SARS-CoV-2 PLpro [1]; 200 μM, vs DMSO control): 97%
inhibition activity in SARS-CoV-2 PLpro enzymatic activity (SARS-CoV-2 PLpro [1]): more than 50%
inhibition at 50 µM (SARS-CoV-2 PLpro [2]; 50 μM, vs DMSO control, read-out: inhibition of PLpro DUB activity): 70%
inhibition at 100 µM (SARS-CoV-2 PLpro [2]; 100 μM, vs DMSO control, read-out: inhibition of PLpro DUB activity): 90%
inhibition at 200 µM (SARS-CoV-2 PLpro [2]; 200 μM, vs DMSO control, read-out: inhibition of PLpro DUB activity): 95%
cytotoxicity (in words) (Vero-E6 cells): not c ytotoxic

CC1(C)[C@@H](O[C@H]2O[C@H](C(=O)O)[C@@H](O)[C@H](O)[C@H]2O[C@@H]2O[C@H](C(=O)O)[C@@H](O)[C@H](O)[C@H]2O)CC[C@]2(C)[C@H]3C(=O)C=C4[C@@H]5C[C@@](C)(C(=O)O)CC[C@]5(C)CC[C@@]4(C)[C@]3(C)CC[C@@H]12 [glycyrrhizic acid]
inhibitory activity towards PLpro proteolytic activity (in words) (SARS-CoV-2 PLpro [1]): did not show inhibitory activity

C[C@@H]1CC[C@H]2[C@@H](C)C(=O)O[C@@H]3O[C@@]4(C)CC[C@@H]1[C@]32OO4 [artemisinin, reference compound]
inhibitory activity towards PLpro proteolytic activity (in words) (SARS-CoV-2 PLpro [1]): did not show inhibitory activity

O=C1C=CC[C@@H]2[C@H]3CCCN4CCC[C@@H](CN12)[C@@H]34 [sophocarpine]
inhibitory activity towards PLpro proteolytic activity (in words) (SARS-CoV-2 PLpro [1]): only colchicine out of all the tested alkaloids

O=C(/C=C/c1ccc(O)c(O)c1)O[C@H](Cc1ccc(O)c(O)c1)C(=O)O [rosmarinic acid]
inhibition at 200 µM (SARS-CoV-2 PLpro [1]): 50%

C[C@@H]1O[C@@H](OC[C@H]2O[C@@H](Oc3c(-c4ccc(O)c(O)c4)oc4cc(O)cc(O)c4c3=O)[C@H](O)[C@@H](O)[C@@H]2O)[C@H](O)[C@H](O)[C@H]1O [rutin]
inhibition at 50 µM (SARS-CoV-2 PLpro [1]): 70%
inhibition at 100 µM (SARS-CoV-2 PLpro [1]): 70%
inhibition at 200 µM (SARS-CoV-2 PLpro [1]): 88%
cytotoxicity (in words) (Vero-E6 cells): not c ytotoxic

CC(C)=CCc1c(O)cc2oc3cc(O)c(O)c(CC=C(C)C)c3c(=O)c2c1O [γ-mangostin]
IC50, PLpro proteolytic activity (Figure 5) (SARS-CoV-2 PLpro [1]): Ambiguous
IC50 towards PLpro proteolytic activity (SARS-CoV-2 PLpro [1]): ambiguous

CC1(C)OC(=O)C=C[C@]2(C)[C@H]3CC[C@@]4(C)[C@H](c5ccoc5)OC(=O)[C@H]5O[C@]54[C@]3(C)C(=O)C[C@@H]12 [obacunone]
inhibitory activity towards PLpro proteolytic activity (in words) (SARS-CoV-2 PLpro [1]): did not show inhibitory activity

O=c1c(-c2ccc(O)cc2)coc2cc(O[C@@H]3O[C@H](CO)[C@@H](O)[C@H](O)[C@H]3O)cc(O)c12 [genistin]
inhibitory activity towards PLpro proteolytic activity (in words) (SARS-CoV-2 PLpro [1]): none of the tested isoflavone compounds such as daidzein, daidzin, genistein, genistin, and isoflorentin demonstrated an inhibitory effect

O=c1c(-c2ccc(O)cc2)coc2cc(O[C@@H]3O[C@H](CO)[C@@H](O)[C@H](O)[C@H]3O)ccc12 [daidzin]
inhibitory activity towards PLpro proteolytic activity (in words) (SARS-CoV-2 PLpro [1]): none of the tested isoflavone compounds such as daidzein, daidzin, genistein, genistin, and isoflorentin demonstrated an inhibitory effect

O=c1c(O)cc([C@H]2Oc3cc(O)cc(O)c3C[C@H]2O)cc2c([C@H]3Oc4cc(O)cc(O)c4C[C@H]3O)cc(O)c(O)c12 [theaflavin]
inhibition at 50 µM (SARS-CoV-2 PLpro [1]; 50 μM, vs DMSO control): 94%
inhibition at 200 µM (SARS-CoV-2 PLpro [1]; 200 μM, vs DMSO control): 100%
inhibition activity in SARS-CoV-2 PLpro enzymatic activity (SARS-CoV-2 PLpro [1]): more than 50%
IC50 (SARS-CoV-2 PLpro [1]; [4]): 7.3 µM
inhibition of PLpro DUB activity (SARS-CoV-2 PLpro [2]; 50 μM, vs DMSO control): complete inhibition
IC50 (SARS-CoV-2 PLpro [2]; dose-dependent study, 0–100 µM, non-linear regression, read-out: IC50 for PLpro DUB activity): 13.2 µM
IC50 (SARS-CoV-2 PLpro [2]; dose-dependent study, read-out: IC50, PLpro DUB activity (Figure 6)): 13.2 µM

O=c1c(-c2ccc(O)cc2)coc2cc(O)cc(O)c12 [genistein]
inhibitory activity towards PLpro proteolytic activity (in words) (SARS-CoV-2 PLpro [1]): none of the tested isoflavone compounds such as daidzein, daidzin, genistein, genistin, and isoflorentin demonstrated an inhibitory effect
